According to US20070167465A1, “Fungicidal mixtures” (BASF AKTIENGESELLSCHAFT, priority 2004, published 2007):

Test system: Pyrenophora teres
Experiment: activity against net blotch of barley caused by Pyrenophora teres, 1-day-protective application
Assay type: in vivo, Pyrenophora [syn. Drechslera] teres on barley seedlings
Conditions: individual active compound, barley seedlings, assessed after 6 days
Procedure: The active compounds, separately or jointly, were prepared as a stock solution comprising 0.25% by weight of active compound in acetone or DMSO. 1% by weight of the emulsifier Uniperol® EL (wetting agent having emulsifying and dispersant action based on ethoxylated alkylphenols) was added to this solution, and the mixture was diluted with water to the desired concentration.
Use example—activity against net blotch of barley caused by Pyrenophora teres, 1-day-protective application.
Leaves of pot-grown barley seedlings were sprayed to run-off point with an aqueous suspension having the concentration of active compound stated below. 24 hours after the spray coating had dried on, the test plants were inoculated with an aqueous spore suspension of Pyrenophora [syn. Drechslera] teres, the causative agent of net blotch. The test plants were subsequently placed in a greenhouse at temperatures of between 20 and 24° C. and at 95 to 100% relative atmospheric humidity. After 6 days, the extent of development of the disease was determined visually in % infection of the total leaf area.
The visually determined percentages of infected leaf areas were converted into efficacies in % of the untreated control:
The efficacy (E) is calculated as follows using Abbot's formula: E=(1−α/β).100 α corresponds to the fungal infection of the treated plants in % and β corresponds to the fungal infection of the untreated (control) plants in %
An efficacy of 0 means that the infection level of the treated plants corresponds to that of the untreated control plants; an efficacy of 100 means that the treated plants were not infected.
The expected efficacies of mixtures of active compounds were determined using Colby's formula (Colby, S. R. “Calculating synergistic and antagonistic responses of herbicide combinations”, Weeds, 15, 20-22, 1967) and compared with the observed efficacies.
Colby's formula: E=x+y−x·y/100 • E expected efficacy, expressed in % of the untreated control, when using the mixture of the active compounds A and B at the concentrations a and b • x efficacy, expressed in % of the untreated control, when using the active compound A at the concentration a
y efficacy, expressed in % of the untreated control, when using the active compound B at the concentration b

| SMILES | Efficacy in % of the untreated control (1.25 ppm in the spray liquor) | Efficacy in % of the untreated control (0.25 ppm in the spray liquor) | Efficacy in % of the untreated control (6.25 ppm in the spray liquor) |
| --- | --- | --- | --- |
| CC1CCN(c2c(-c3c(F)cc(F)cc3F)c(Cl)nc3ncnn23)CC1 [I, 5-chloro-7-(4-methylpiperidin-1-yl)-6-(2,4,6-trifluorophenyl)-[1,2,4]triazolo[1,5-a]pyrimidine] | 56 % of the untreated control | – | – |
| CC(C)NC(=O)N1CC(=O)N(c2cc(Cl)cc(Cl)c2)C1=O [II (iprodione), N-isopropyl-3-(3,5-dichlorophenyl)-2,4-dioxoimidazolidine-1-carboxamide] | 0 % of the untreated control | 0 % of the untreated control | 0 % of the untreated control |
